This note sets out measurements from ChEMBL document CHEMBL1146408, “Makaluvamine N: a new pyrroloiminoquinone from Zyzzya fuliginosa” (1997).

Usually inhibition stands for the percentage by which the read-out fell short of the control. A low value points to little suppression.

The assay has as its target DNA topoisomerase 2-alpha (Homo sapiens) (UniProt P11388). As to the kind of experiment: Inhibition of human topoisomerase 2alpha-mediated supercoiled pBR322 DNA relaxation at 5 ug/ml by agarose gel electrophoresis.

Sequence of DNA topoisomerase 2-alpha (Homo sapiens) (P11388 whole entry): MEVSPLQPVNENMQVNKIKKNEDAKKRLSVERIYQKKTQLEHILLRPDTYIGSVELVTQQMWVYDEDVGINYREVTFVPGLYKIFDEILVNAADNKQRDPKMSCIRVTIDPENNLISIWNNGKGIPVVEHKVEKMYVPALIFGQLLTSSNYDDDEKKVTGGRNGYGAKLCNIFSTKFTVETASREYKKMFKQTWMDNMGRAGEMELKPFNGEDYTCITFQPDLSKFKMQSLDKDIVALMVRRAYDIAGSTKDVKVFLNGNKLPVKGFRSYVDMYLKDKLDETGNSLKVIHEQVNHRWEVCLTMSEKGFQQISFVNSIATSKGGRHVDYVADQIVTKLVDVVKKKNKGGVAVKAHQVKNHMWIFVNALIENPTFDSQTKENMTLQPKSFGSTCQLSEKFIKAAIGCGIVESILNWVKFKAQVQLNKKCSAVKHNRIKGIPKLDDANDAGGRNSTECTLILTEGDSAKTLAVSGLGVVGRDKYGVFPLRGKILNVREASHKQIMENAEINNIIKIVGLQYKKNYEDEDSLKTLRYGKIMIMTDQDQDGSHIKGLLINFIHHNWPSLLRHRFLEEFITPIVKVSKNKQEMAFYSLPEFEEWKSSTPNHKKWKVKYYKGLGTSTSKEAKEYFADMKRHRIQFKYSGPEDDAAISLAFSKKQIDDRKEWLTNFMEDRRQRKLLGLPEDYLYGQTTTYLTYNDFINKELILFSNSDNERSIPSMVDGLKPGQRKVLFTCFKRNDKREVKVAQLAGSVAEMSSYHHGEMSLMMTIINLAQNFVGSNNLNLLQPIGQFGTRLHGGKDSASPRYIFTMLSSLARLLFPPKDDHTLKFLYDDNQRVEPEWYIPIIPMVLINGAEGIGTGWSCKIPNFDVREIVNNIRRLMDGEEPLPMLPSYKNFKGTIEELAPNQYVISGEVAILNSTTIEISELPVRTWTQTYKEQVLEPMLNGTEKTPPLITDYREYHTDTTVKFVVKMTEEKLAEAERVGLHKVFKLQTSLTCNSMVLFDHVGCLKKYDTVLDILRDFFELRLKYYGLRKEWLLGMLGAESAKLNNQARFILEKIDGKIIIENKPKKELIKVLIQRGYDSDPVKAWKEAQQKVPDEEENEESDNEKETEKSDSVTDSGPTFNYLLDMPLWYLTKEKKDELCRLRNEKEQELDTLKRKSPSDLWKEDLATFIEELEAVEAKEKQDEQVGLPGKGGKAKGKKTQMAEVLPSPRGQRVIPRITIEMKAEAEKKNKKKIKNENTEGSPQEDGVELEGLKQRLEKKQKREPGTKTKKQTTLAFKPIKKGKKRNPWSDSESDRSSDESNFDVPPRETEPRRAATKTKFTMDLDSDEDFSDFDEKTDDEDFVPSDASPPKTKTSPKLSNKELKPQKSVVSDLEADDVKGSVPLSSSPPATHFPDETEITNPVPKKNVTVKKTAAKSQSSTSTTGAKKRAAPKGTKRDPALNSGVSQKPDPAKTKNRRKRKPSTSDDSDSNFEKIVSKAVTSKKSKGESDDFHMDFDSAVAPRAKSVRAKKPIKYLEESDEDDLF

In turn, `NC1=C(Br)C2=NCCc3c[nH]c(c32)C1=O` yielded an inhibition of 90%.
